We go through 25 compounds from patent publication US20170247326A1, “Substituted Pyrrolidine Carboxamide Compounds” (EPIZYME, INC., priority 2014, published 2017).

As usually defined, the IC50 is the concentration that gives 50% inhibition.

In the first experiment the target is T1, SMYD2 (Homo sapiens, UniProt Q9NRG4).
T1 construct: Full length SMYD2 (NP_064582.2) was cloned; His6 (N, cleaved yes); FLAG (N); made in house; host or cells: Sf9 insect cells
T1 sequence (Q9NRG4 whole entry): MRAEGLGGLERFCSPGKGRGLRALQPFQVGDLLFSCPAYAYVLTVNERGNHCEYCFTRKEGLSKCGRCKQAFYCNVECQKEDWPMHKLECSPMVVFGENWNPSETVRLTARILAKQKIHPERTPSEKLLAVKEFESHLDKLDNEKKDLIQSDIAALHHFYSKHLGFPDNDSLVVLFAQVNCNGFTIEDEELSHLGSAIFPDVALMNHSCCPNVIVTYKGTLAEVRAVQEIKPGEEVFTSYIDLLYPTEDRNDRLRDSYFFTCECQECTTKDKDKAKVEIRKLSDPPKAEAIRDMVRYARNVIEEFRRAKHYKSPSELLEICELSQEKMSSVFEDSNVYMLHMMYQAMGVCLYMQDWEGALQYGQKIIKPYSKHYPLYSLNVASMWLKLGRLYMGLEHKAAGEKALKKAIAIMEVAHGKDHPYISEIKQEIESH
Kind of experiment: SMYD2 biochemical assay (3H-SAM, biotinylated peptide substrate, Flashplate). The settings on record: Table 1; average of n = 1 to n = 50; read-out: SMYD2 Biochem IC50. An excerpt:
S-adenosylmethionine (SAM), S-adenosylhomocysteine (SAH), bicine, Tween20, dimethylsulfoxide (DMSO), bovine skin gelatin (BSG), and Tris(2-carboxyethyl)phosphine hydrochloride (TCEP) were purchased from Sigma-Aldrich at the highest level of purity possible. ^3H-SAM was purchase from American Radiolabeled Chemicals with a specific activity of 80 Ci/mmol. 384-well streptavidin Flashplates were purchased from PerkinElmer.
Peptide was synthesized with a N-terminal linker-affinity tag motif and a C-terminal amide cap by 21st Century Biochemicals. The peptide was high high-performance liquid chromatography (HPLC) purified to greater than 95% purity and confirmed by liquid chromatography mass spectrometry (LC-MS). The sequence was […](K-Biot)-amide. (SEQ ID NO: 3)
Full length SMYD2 (NP_064582.2) was cloned into a pFastbac-Htb-lic vector with an N-terminal His6 tag and FLAG tag, preceded by a TEV protease cleavage site. The protein was expressed in Sf9 insect cells. Cells were resuspended in lysis buffer (25 mM HEPES-NaOH, pH 7.5, 200 mM NaCl, 5% glycerol, and 5 mM […] and lysed by sonication. The protein was purified by Ni-NTA (Qiagen), followed by TEV cleavage to remove the His6 tag, subtractive Ni-NTA (Qiagen), and gel filtration chromatography using an S200 column (GE Healthcare). Purified protein was stored in 20 mM Tris-HCl, pH 8.0, 100 mM NaCl, and 1 mM TCEP.
General Procedure for SMYD2 Enzyme Assays on Peptide Substrates
The assays were all performed in a buffer consisting of 20 mM Bicine (pH=7.6), 1 mM TCEP, 0.005% Bovine Skin Gelatin, and 0.002% Tween20, prepared on the day of use. Compounds in 100% DMSO (1 ul) were spotted into a polypropylene 384-well V-bottom plates (Greiner) using a Platemate Plus outfitted with a 384-channel head (Thermo Scientific). DMSO (1 ul) was added to Columns 11, 12, 23, 24, rows A-H for the maximum signal control and 1 ul of SAH, a known product and inhibitor of SMYD2, was added to columns 11, 12, 23, 24, rows I-P for the minimum signal control. A cocktail (40 ul) containing the SMYD2 enzyme was added by Multidrop Combi (Thermo-Fisher). The compounds were allowed to incubate with SMYD2 for 30 min at room temperature, then a cocktail (10 ul) containing ^3H-SAM and peptide was added to initiate the reaction (final volume=51 ul). The final concentrations of the components were as follows: SMYD2 was 1.5 nM, ^3H-SAM was 10 nM, and peptide was 60 nM, SAH in the minimum signal control wells was 1000 uM, and the DMSO concentration was 2%. The assays were stopped by the addition of non-radioactive SAM (10 ul) to a final concentration of 600 uM, which dilutes the ^3H-SAM to a level where its incorporation into the peptide substrate is no longer detectable. 50 ul of the reaction in the 384-well polypropylene plate was then transferred to a 384-well Flashplate and the biotinylated peptides were allowed to bind to the streptavidin surface for at least 1 hour before being washed three times with 0.1% Tween20 in a Biotek ELx405 plate washer. The plates were then read in a PerkinElmer TopCount plate reader to measure the quantity of ^3H-labeled peptide bound to the Flashplate surface, measured as disintegrations per minute (dpm) or alternatively, referred to as counts per minute (cpm).
Where dpm=disintegrations per minute, cmpd=signal in assay well, and min and max are the respective minimum and maximum signal controls.
Where top and bottom are the normally allowed to float, but may be fixed at 100 or 0 respectively in a 3-parameter fit. The Hill Coefficient normally allowed to float but may also be fixed at 1 in a 3-parameter fit. I is the compound concentration.
SMYD2 biochemical assay data for representative Compounds of the Disclosure are presented in Tables 1, 3, and 4 in the column titled “SMYD2 Bicohem IC50 (μM).”
Regarding `C[C@H]1CN(C2CC2)C[C@@H]1NC(=O)c1ccc2[nH]c(=O)[nH]c2c1` (racemic) [compound 22, (±)-trans-N-(1-cyclopropyl-4-methylpyrrolidin-3-yl)-2-oxo-2,3-dihydro-1H-benzo[d]imidazole-5-carboxamide], the IC50 is > 50 µM.
As for `C[C@H]1CN(C2CC2)C[C@H]1NC(=O)c1ccc(N2CCCC2)cc1` (racemic) [compound 21, (±)-cis-N-(1-cyclopropyl-4-methylpyrrolidin-3-yl)-4-(pyrrolidin-1-yl)benzamide], the IC50 is > 50 µM.
Same read-out and setting: with `C[C@H]1CN(C2CC2)C[C@@H]1NC(=O)c1ccc2c(c1)CC(=O)N2` (racemic) [Cpd. No. 5, (±)-trans-N-(1-cyclopropyl-4-methylpyrrolidin-3-yl)-2-oxoindoline-5-carboxamide] the figure was > 50 µM; with `C[C@H]1CN(C2CC2)C[C@H]1NC(=O)c1cn(C2CC2)nn1` (racemic) [compound 19, (±)-cis-1-cyclopropyl-N-(1-cyclopropyl-4-methylpyrrolidin-3-yl)-1H-1,2,3-triazole-4-carboxamide], 1.4 µM; with `CC1Oc2ccc(C(=O)N[C@H]3CN(C4CC4)C[C@@H]3C)cc2NC1=O` (mixture of isomers) [compound 7, (±)-trans-N-(1-cyclopropyl-4-methylpyrrolidin-3-yl)-2-methyl-3-oxo-3,4-dihydro-2H-benzo[b][1,4]oxazine-6-carboxamide], > 50 µM.

Still in this experiment, the particulars now being: Table 3; average of n = 1 to n = 50; read-out: SMYD2 Biochem IC50.
With `CC(C)N1C[C@H](C)[C@H](NC(=O)c2coc(C3CC3)n2)C1` (racemic) [compound 63, (±)-cis-2-cyclopropyl-N-[4-methyl-1-(propan-2-yl)pyrrolidin-3-yl]-1,3-oxazole-4-carboxamide], the IC50 was > 50 µM.
For `CC(C)N1C[C@H](C)[C@H](NC(=O)c2ncc(C3CC3)s2)C1` (racemic) [compound 69, (±)-cis-5-cyclopropyl-N-[4-methyl-1-(propan-2-yl)pyrrolidin-3-yl]-1,3-thiazole-2-carboxamide], the IC50 stood at 3.3 µM.
Take `CC(C)N1C[C@@H](C)[C@H](NC(=O)c2nccc(C3CC3)n2)C1` (racemic) [compound 67, (±)-trans-4-cyclopropyl-N-[4-methyl-1-(propan-2-yl)pyrrolidin-3-yl]pyrimidine-2-carboxamide]: the IC50 is > 50 µM.
The same measure, in the same setting: with `CC(C)N1C[C@H](C)[C@H](NC(=O)c2cc(C3CCC3)cnn2)C1` (racemic) [compound 94, (±)-cis-5-cyclobutyl-N-[4-methyl-1-(propan-2-yl)pyrrolidin-3-yl]pyridazine-3-carboxamide] the figure was > 50 µM.
Consider `CC(C)N1C[C@H](C)[C@H](NC(=O)c2cc3c(cn2)OC(F)(F)O3)C1` (racemic) [compound 75, (±)-cis-2,2-difluoro-N-[4-methyl-1-(propan-2-yl)pyrrolidin-3-yl]-2H-[1,3]dioxolo[4,5-c]pyridine-6-carboxamide], for which the IC50 was > 50 µM.
On the same count and under the same terms, the result for `CC(C)N1C[C@@H](C)[C@H](NC(=O)c2ccc3c(c2)OCC(=O)N3)C1` (racemic) [compound 28, (±)-trans-N-[4-methyl-1-(propan-2-yl)pyrrolidin-3-yl]-3-oxo-3,4-dihydro-2H-1,4-benzoxazine-7-carboxamide] reads > 50 µM.
The same measure, in the same setting: with `CC(C)N1C[C@@H](C)[C@@H](NC(=O)c2cn(C3CC3)cn2)C1` (stereo in doubt) [compound 121, (±)-cis-1-cyclopropyl-N-(1-isopropyl-4-methylpyrrolidin-3-yl)-1H-imidazole-4-carboxamide] the figure was 2.2 µM; with `CC(C)N1C[C@H](C)[C@H](NC(=O)c2ccc(C3CC3)[nH]c2=O)C1` (racemic) [compound 83, (±)-cis-6-cyclopropyl-N-[4-methyl-1-(propan-2-yl)pyrrolidin-3-yl]-2-oxo-1,2-dihydropyridine-3-carboxamide], > 50 µM.
“(±)-cis-N-(1-((2-aminoethyl)sulfonyl)-4-methylpyrrolidin-3-yl)-5-cyclopmpylpyridazine-3-carboxamide [compound 113]”: the IC50 is > 50 µM.
For `CC(C)N1C[C@H](C)[C@H](NC(=O)c2cc(C3CC3)c[nH]c2=O)C1` (racemic) [compound 82, (±)-cis-5-cyclopropyl-N-[4-methyl-1-(propan-2-yl)pyrrolidin-3-yl]-2-oxo-1,2-dihydropyridine-3-carboxamide], the IC50 amounted to 13.6 µM.
Turning to `C[C@H]1CN(Cc2ccc(OCc3ccccc3)cc2)C[C@@H]1NC(=O)c1cc(C2CC2)cnn1` (racemic) [compound 107, (±)-trans-N-(1-{[4-(benzyloxy)phenyl]methyl}-4-methylpyrrolidin-3-yl)-5-cyclopropylpyridazine-3-carboxamide], the IC50 was 2.7 µM.
Regarding `CC(C)N1C[C@H](C)[C@H](NC(=O)c2cnc(C3CC3)o2)C1` (racemic) [compound 78, (±)-cis-2-cyclopropyl-N-[4-methyl-1-(propan-2-yl)pyrrolidin-3-yl]-1,3-oxazole-5-carboxamide], the IC50 is > 50 µM.
As to `CC(C)N1C[C@H](C)[C@H](NC(=O)c2ncc(C3CC3)o2)C1` (racemic) [compound 76, (±)-cis-5-cyclopropyl-N-[4-methyl-1-(propan-2-yl)pyrrolidin-3-yl]-1,3-oxazole-2-carboxamide], the IC50 is 6.77 µM.
Still for that read-out and setting: the result for `CC(C)N1C[C@@H](C)[C@H](NC(=O)c2ncc(C3CC3)o2)C1` (racemic) [compound 73, (±)-trans-5-cyclopropyl-N-[4-methyl-1-(propan-2-yl)pyrrolidin-3-yl]-1,3-oxazole-2-carboxamide] reads > 50 µM; that for `CC(C)N1C[C@@H](C)[C@H](NC(=O)c2ccc(C3CC3)nn2)C1` (racemic) [compound 108, (±)-trans-6-cyclopropyl-N-[4-methyl-1-(propan-2-yl)pyrrolidin-3-yl]pyridazine-3-carboxamide], > 50 µM; that for `CN(C)C1CCC(NC(=O)c2cn(C3CC3)nn2)C1` (stereo not shown) [compound 122, 1-cyclopropyl-N-[3-(dimethylamino)cyclopentyl]-1H-1,2,3-triazole-4-carboxamide], > 50 µM.
For the compound `CC(C)N1C[C@@H](C)[C@H](NC(=O)c2cc(C3CC3)[nH]n2)C1` (racemic) [compound 62, (±)-trans-5-cyclopropyl-N-[4-methyl-1-(propan-2-yl)pyrrolidin-3-yl]-1H-pyrazole-3-carboxamide], the IC50 is > 50 µM.
On the same count and under the same terms, the result for `C[C@H]1CN(C2CC2)C[C@H]1NC(=O)c1cccc(N2CCCC2)c1` (racemic) [compound 31, (±)-cis-N-[1-cyclopropyl-4-methylpyrrolidin-3-yl]-3-(pyrrolidin-1-yl)benzamide] reads > 50 µM; that for `CC(C)N1C[C@H](C)[C@H](NC(=O)c2cnc(C3CC3)cn2)C1` (racemic) [compound 51, (±)-cis-5-cyclopropyl-N-[4-methyl-1-(propan-2-yl)pyrrolidin-3-yl]pyrazine-2-carboxamide], > 50 µM.

Still in this experiment, the particulars now being: Table 4; average of n = 1 to n = 50; read-out: SMYD2 Biochem IC50.
Regarding `C[C@H]1CN(S(=O)(=O)CCN)C[C@H]1NC(=O)c1cc(C2CC2)cnn1` (racemic) [compound 127, rac-N-((3R,4R)-1-((2-aminoethyl)sulfonyl)-4-methylpyrrolidin-3-yl)-5-cyclopropylpyridazine-3-carboxamide], the concentration for half-maximal inhibition (IC50) is > 50 µM.
